Experimental findings from ChEMBL document CHEMBL5385908, “Screening Ultra-Large Encoded Compound Libraries Leads to Novel Protein-Ligand Interactions and High Selectivity” (J Med Chem, 2024) are described below.

Structures are written as SMILES.

The target of experiment [1] is T1, Proteinase-activated receptor 2 (Homo sapiens, UniProt P55085).
T1 sequence (P55085 whole entry): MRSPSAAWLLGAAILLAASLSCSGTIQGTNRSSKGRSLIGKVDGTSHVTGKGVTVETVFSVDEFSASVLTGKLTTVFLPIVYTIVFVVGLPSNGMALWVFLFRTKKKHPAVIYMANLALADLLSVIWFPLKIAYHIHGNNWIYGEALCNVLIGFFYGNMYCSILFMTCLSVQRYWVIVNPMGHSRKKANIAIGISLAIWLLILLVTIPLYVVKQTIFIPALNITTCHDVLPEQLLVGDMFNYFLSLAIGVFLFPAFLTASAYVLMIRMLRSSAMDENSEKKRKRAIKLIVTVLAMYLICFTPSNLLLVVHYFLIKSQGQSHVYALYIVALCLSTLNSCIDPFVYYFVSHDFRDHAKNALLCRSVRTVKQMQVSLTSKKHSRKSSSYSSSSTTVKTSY
Briefly: Antagonist activity at PAR2 (unknown origin).

Experiment [2] addresses T2, Tyrosine-protein kinase receptor UFO (Homo sapiens, UniProt P30530).
T2 sequence (P30530 whole entry): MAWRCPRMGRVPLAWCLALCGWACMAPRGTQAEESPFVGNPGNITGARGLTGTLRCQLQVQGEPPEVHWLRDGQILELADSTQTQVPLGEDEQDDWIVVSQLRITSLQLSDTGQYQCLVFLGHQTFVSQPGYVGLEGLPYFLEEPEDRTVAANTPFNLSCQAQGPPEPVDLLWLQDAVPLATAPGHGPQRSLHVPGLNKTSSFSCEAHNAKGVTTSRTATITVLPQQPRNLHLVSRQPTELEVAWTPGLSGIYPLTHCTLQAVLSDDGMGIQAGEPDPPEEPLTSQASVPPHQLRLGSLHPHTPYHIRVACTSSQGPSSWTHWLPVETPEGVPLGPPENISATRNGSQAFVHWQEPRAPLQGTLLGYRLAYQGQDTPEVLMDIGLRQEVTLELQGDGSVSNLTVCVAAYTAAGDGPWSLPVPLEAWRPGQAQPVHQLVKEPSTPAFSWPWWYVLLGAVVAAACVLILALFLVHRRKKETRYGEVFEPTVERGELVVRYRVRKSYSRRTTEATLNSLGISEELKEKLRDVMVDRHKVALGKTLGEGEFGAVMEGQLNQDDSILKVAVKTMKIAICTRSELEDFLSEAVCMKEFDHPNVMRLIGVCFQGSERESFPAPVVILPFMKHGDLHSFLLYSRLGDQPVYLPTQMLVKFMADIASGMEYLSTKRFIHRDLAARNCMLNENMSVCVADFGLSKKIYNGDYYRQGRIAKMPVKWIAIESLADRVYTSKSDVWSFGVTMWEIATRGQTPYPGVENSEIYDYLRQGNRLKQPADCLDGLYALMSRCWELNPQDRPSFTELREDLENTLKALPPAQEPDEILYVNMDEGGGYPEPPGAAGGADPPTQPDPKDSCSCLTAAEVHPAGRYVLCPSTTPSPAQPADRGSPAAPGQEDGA
Briefly: Inhibition of AXL (unknown origin) by FRET assay.

Experiment [3] concerns the target T3, Receptor-type tyrosine-protein kinase FLT3 (Homo sapiens, UniProt P36888).
T3 sequence (P36888 whole entry): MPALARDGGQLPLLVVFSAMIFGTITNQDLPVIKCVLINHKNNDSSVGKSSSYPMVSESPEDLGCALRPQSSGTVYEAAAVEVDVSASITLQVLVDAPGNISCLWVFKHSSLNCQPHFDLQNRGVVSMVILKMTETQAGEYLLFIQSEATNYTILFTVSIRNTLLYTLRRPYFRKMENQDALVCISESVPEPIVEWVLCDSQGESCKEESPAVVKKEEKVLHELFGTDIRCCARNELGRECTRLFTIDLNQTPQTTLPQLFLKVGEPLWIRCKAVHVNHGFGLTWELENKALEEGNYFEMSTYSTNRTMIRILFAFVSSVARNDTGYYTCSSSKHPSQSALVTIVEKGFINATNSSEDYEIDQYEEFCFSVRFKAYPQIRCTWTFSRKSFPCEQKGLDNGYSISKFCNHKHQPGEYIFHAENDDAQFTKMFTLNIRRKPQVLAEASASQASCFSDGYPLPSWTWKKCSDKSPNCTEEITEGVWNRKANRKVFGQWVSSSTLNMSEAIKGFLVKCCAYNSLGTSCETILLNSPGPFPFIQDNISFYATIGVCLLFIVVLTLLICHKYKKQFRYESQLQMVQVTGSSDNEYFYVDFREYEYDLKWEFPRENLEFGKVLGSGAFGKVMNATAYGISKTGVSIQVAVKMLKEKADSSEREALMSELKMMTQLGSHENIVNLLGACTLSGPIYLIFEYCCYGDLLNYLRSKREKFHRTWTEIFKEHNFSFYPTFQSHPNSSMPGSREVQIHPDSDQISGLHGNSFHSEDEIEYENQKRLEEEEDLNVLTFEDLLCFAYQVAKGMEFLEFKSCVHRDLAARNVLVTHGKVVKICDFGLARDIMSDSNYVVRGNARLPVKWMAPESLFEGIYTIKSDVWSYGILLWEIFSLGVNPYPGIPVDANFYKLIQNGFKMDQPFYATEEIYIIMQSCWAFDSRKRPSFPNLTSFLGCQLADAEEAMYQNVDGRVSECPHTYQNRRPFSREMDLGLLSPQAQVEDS
Put plainly: Inhibition of wild type FLT3 (unknown origin).

In experiment [4] the target is T4, Tyrosine-protein kinase Mer (Homo sapiens, UniProt Q12866).
T4 sequence (Q12866 whole entry): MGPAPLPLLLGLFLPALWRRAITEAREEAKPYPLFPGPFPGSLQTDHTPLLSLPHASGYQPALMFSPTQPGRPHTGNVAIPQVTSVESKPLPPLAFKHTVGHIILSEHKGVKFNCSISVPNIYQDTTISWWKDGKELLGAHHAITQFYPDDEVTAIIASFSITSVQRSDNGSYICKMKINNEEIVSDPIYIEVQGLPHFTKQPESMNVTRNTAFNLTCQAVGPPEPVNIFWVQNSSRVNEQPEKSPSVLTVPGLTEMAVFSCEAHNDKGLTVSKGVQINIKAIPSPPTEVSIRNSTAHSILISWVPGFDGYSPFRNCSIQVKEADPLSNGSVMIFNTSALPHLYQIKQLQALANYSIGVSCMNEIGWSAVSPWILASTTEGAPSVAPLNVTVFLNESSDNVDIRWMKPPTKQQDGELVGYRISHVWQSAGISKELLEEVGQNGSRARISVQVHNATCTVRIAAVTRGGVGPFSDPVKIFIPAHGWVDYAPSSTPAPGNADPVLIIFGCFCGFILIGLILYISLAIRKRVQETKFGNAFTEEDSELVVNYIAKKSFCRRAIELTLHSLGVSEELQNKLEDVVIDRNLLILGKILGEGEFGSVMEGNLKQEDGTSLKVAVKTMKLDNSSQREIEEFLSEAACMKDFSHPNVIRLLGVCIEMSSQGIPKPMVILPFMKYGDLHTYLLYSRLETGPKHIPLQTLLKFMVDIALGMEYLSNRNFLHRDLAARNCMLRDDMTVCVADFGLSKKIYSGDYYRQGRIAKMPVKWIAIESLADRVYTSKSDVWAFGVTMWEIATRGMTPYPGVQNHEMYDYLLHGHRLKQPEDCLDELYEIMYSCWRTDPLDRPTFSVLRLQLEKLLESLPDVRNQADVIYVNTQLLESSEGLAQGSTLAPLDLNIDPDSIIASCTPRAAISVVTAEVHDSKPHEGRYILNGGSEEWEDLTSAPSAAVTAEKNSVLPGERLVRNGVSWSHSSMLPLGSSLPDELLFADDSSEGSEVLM
Briefly: Inhibition of N-terminal His6-tagged human MerTk.

Experiment [5] addresses T5, ATPase family AAA domain-containing protein 2 (Homo sapiens, UniProt Q6PL18).
T5 sequence (Q6PL18 whole entry): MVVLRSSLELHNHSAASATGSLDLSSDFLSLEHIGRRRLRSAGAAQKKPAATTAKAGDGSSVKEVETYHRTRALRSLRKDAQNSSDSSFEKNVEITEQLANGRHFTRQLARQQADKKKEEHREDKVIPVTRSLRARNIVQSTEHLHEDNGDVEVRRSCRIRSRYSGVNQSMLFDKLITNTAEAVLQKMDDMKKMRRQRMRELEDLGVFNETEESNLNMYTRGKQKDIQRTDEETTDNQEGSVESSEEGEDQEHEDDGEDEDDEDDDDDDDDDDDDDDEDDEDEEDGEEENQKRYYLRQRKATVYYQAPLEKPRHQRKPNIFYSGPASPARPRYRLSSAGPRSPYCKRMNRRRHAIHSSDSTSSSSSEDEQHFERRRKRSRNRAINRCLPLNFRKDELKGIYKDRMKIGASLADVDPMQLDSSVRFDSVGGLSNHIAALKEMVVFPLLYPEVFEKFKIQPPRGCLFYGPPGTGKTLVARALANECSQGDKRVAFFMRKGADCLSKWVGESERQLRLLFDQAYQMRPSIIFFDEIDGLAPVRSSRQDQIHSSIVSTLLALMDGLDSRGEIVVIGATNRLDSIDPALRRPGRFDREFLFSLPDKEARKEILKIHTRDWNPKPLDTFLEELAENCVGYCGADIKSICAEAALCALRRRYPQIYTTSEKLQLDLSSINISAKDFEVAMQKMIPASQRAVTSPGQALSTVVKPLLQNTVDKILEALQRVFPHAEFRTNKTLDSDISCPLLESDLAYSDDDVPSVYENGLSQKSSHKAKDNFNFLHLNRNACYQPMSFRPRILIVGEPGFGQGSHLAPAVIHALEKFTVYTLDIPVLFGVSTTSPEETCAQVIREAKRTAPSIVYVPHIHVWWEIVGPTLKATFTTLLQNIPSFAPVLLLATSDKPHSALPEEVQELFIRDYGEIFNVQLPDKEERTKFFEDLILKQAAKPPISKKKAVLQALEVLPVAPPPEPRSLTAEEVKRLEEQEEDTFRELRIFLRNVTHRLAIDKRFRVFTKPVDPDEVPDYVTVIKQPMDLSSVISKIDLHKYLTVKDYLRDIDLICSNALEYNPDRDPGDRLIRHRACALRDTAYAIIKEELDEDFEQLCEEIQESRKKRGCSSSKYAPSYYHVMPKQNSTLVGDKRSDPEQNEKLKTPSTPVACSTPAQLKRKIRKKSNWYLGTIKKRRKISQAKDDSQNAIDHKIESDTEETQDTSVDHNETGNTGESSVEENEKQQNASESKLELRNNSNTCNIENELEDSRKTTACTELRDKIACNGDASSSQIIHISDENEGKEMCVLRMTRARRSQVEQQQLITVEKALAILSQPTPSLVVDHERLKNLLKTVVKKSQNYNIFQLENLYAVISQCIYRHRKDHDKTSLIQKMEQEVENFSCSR
Briefly: Inhibition of N-terminal Hexahistidine-GST-tagged human ATAD2 bromodomain expressed in Escherichia coli BL21 (DE3) Rosetta cells incubated for 1 hr by FRET analysis.

Experiment [6] addresses T6, Protein-arginine deiminase type-4 (Homo sapiens, UniProt Q9UM07). Put plainly: Inhibition of N-terminal GST-tagged PAD4 (unknown origin) expressed in Escherichia coli incubated for 1 hr by spectrophotometric method.
In another experiment the target is T7, Protein phosphatase 1D (Homo sapiens, UniProt O15297).
T7 sequence (O15297 whole entry): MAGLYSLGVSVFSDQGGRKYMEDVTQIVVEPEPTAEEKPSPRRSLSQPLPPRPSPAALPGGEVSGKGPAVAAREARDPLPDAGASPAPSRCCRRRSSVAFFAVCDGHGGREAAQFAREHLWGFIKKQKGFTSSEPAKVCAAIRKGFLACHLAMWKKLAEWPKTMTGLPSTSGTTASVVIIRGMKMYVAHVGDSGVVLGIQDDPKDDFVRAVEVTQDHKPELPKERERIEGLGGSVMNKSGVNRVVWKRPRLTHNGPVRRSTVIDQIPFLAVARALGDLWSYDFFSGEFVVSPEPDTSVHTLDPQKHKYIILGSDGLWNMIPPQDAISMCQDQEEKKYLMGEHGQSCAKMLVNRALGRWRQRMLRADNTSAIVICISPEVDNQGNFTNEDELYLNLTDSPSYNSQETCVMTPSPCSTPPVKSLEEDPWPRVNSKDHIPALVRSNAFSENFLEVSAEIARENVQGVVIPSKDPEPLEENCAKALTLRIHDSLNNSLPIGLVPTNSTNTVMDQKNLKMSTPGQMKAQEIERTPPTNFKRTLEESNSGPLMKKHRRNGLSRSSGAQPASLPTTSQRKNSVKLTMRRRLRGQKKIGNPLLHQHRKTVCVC
Briefly: Inhibition of N-terminal FLAG-His8-tagged human Wip1 (2 to 420 residues) expressed in bac-to-bac baculovirus expression system infected Sf9 cells.

Experiment [7] deals with T6, Protein-arginine deiminase type-4. Put plainly: Inhibition of N-terminal GST-tagged PAD4 (unknown origin) expressed in Escherichia coli BL21 (DE3) measured after 1 hr by colorimetric assay.

T6 sequence (Q9UM07 whole entry): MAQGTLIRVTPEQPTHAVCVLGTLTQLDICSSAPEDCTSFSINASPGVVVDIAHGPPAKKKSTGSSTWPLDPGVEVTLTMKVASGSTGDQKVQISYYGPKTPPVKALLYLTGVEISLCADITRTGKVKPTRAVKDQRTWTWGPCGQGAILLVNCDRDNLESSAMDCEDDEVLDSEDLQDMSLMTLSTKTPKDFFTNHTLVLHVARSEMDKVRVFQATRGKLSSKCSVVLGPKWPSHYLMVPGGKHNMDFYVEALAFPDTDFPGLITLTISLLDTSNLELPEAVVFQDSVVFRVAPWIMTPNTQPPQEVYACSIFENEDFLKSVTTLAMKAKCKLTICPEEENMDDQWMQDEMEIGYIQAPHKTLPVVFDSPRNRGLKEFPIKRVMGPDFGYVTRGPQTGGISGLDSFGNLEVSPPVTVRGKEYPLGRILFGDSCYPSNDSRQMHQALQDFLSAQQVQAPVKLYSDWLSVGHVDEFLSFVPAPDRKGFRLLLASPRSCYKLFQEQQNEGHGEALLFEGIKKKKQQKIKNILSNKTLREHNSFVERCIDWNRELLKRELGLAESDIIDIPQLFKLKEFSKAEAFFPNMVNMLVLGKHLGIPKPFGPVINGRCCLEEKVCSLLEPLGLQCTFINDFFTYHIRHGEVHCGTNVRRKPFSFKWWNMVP

`C[C@@H](C1CCCCC1)n1c(-c2cc3c(cc2Br)OCO3)nc2cc(C(=O)Nc3ccc(C#N)cc3)ccc21` yielded a concentration for half-maximal inhibition (IC50) in experiment [1] of 23 nM. That is a double-digit nanomolar value.

Regarding `CNC(=O)C[C@@H](NC(=O)[C@@H](Cc1ccccc1)NC(=O)c1c(C)noc1-c1snnc1C)c1ccc(C(F)(F)F)cc1`, the half-inhibitory concentration (IC50) was 16 nM in experiment [2], above 100000 nM in experiment [3] and 5 nM in experiment [4].

In experiment [5], `CNC(=O)[C@@H](Cc1ccc([N+](=O)[O-])cc1)NC(=O)c1cc(-c2ccc(CN[C@H](C)c3ccc(C)cc3)o2)ccc1Cl` showed an IC50 of 22 nM. This lies in the double-digit nanomolar range.

With `Cn1c(-c2cc3cc(C(=O)N4CCCC(N)C4)ccc3n2N)cc2ccccc21` (centres undefined), the IC50 in experiment [6] is 3200 nM. That is a single-digit micromolar value.

On Protein phosphatase 1D, `COCCNC(=O)[C@H](CC1CCCCC1)NC(=O)c1ccc(CNc2cccc(Cl)c2)s1` showed an IC50 of 13 nM. That is a double-digit nanomolar value.

On to `COc1cc(C(=O)N2CCC[C@@H](N)C2)cc2cc(-c3cc4cccnc4n3C)n(N)c12`, for which the half-inhibitory concentration (IC50) in experiment [6] and in experiment [7] was 200 nM throughout.

As to `C[C@@H](c1ccccc1)n1c(-c2cc3c(cc2Br)OCO3)nc2cc(C(=O)Nc3ccccc3)ccc21`, the IC50 in experiment [1] amounted to 90 nM.

For the compound `COc1cc(Cl)c(C(=O)N[C@@H](CN[C@H]2CC[C@@H](N)CC2)Cc2ccc(C#N)cc2)cc1-c1ccc(CN[C@H](C)c2ccc(C)cc2)o1`, the IC50 in experiment [5] stood at 22 nM. That is a double-digit nanomolar value.

On to `CN(Cc1ccc2nccn2c1)c1ccc(-c2ccc(-c3ccccc3Cl)cc2)o1`, for which the IC50 was 400 nM in experiment [2], 15800 nM in experiment [3] and 5 nM in experiment [4].
